# According to ChEMBL document CHEMBL1201862, “PubChem BioAssay data set” (2004):
# Several values for one entry are separate records, joined by “and”; a condition that tells them apart may be missing. Equal entries are not always repeated.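 How tested: cells in 96-well plates exposed to compound for 48 hours at five concentrations. GI50 marks 50% less growth.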 Activity calls are given as the source filed them. Cut-off read from the data, not from the text of the source: active = GI50 up to about 1.1 µM and inactive = higher. Where a SMILES comes first, the peptide text is derived from it. The star is where a group is joined. Cbz = O=C(OCc1ccccc1)*
# Key:
# Test in all cases: DTP human tumour cell line panel, 48 h
# [1] = system: NCI-H522
# [2] = system: OVCAR-4
# [3] = system: HT-29
# [4] = system: HOP-62
# [5] = system: BT-549
# [6] = system: HCT-15
# [7] = system: HL-60
# [8] = system: UACC-257
# [9] = system: HCC 2998
# [10] = system: COLO 205
# [11] = system: A549
# [12] = system: MDA-MB-231
# [13] = system: HCT-116
# [14] = system: EKVX
# [15] = system: Hs-578T
# [16] = system: 786-0
# [17] = system: RPMI-8226
# [18] = system: MDA-MB-435
# [19] = system: DU-145
# [20] = system: SK-MEL-28
SMILES,GI50 [1],GI50 [2],GI50 [3],GI50 [4],GI50 [5],GI50 [6] [µM],GI50 [7],GI50 [8],GI50 [9],GI50 [10],GI50 [11],GI50 [12],GI50 [13],GI50 [14],GI50 [15],GI50 [16],GI50 [17],GI50 [18],GI50 [19],GI50 [20]
O=S(=O)([N-]c1nc2ccccc2nc1-[n+]1ccccc1)c1ccccc1,> 100 µM (inactive),> 100 µM (inactive),> 100 µM (inactive),46.1 µM (inactive),20.8 µM (inactive),> 100,22.1 µM (inactive),> 100 µM (inactive),> 100 µM (inactive),> 100 µM (inactive),> 100 µM (inactive),28.9 µM (inactive),> 100 µM (inactive),> 100 µM (inactive),> 100 µM (inactive),> 100 µM (inactive),74 µM (inactive),,,
CN(C)C(c1ccccc1)C1COC2Cc3ccccc3C1O2 (centres undefined),> 100 µM (inactive),> 100 µM (inactive),47.5 µM (inactive) and 46.6 µM (inactive),> 100 µM (inactive),,> 100,65 µM (inactive) and 46.8 µM (inactive),> 100 µM (inactive),> 100 µM (inactive),> 100 µM (inactive),> 100 µM (inactive),> 100 µM (inactive),98.2 µM (inactive) and 86.9 µM (inactive),> 100 µM (inactive),92.3 µM (inactive),> 100 µM (inactive),> 100 µM (inactive) and 91 µM (inactive),> 100 µM (inactive),> 100 µM (inactive),> 100 µM (inactive)
CCOC(=O)C(NC(=O)NCc1ccc(F)cc1)C(F)(F)F (centres undefined),,,> 100 µM (inactive),,> 100 µM (inactive),> 100,> 100 µM (inactive),> 100 µM (inactive),> 100 µM (inactive),> 100 µM (inactive),> 100 µM (inactive),,> 100 µM (inactive),> 100 µM (inactive),> 100 µM (inactive),> 100 µM (inactive),> 100 µM (inactive),> 100 µM (inactive),,> 100 µM (inactive)
Nc1nc(Cl)cc(OCC2(CO)CCCCC2)n1,53.1 µM (inactive),> 100 µM (inactive),> 100 µM (inactive),> 100 µM (inactive),,24.5,85.7 µM (inactive),78.7 µM (inactive),24.8 µM (inactive),,69.7 µM (inactive),,> 100 µM (inactive),84.7 µM (inactive),> 100 µM (inactive),> 100 µM (inactive),60.5 µM (inactive),> 100 µM (inactive),> 100 µM (inactive),> 100 µM (inactive)
CN(C)c1ccc(C2CC(=O)CC(c3ccc(N(C)C)cc3)C23C(=O)NC(=S)NC3=O)cc1 (centres undefined),,> 100 µM (inactive),> 100 µM (inactive),18 µM (inactive),,> 100,> 100 µM (inactive),> 100 µM (inactive),99.3 µM (inactive),> 100 µM (inactive),> 100 µM (inactive),36 µM (inactive),> 100 µM (inactive),55.5 µM (inactive),30.2 µM (inactive),54.6 µM (inactive),> 100 µM (inactive),> 100 µM (inactive),> 100 µM (inactive),> 100 µM (inactive)
O=CCOCc1cc2c(cc1Br)OCO2,15.7 µM (inactive),20.9 µM (inactive),19 µM (inactive),> 100 µM (inactive),,21.9,20.9 µM (inactive),> 100 µM (inactive),> 100 µM (inactive),> 100 µM (inactive),> 100 µM (inactive),19.7 µM (inactive),21.6 µM (inactive),> 100 µM (inactive),17.1 µM (inactive),17.3 µM (inactive),40.6 µM (inactive),> 100 µM (inactive),28.2 µM (inactive),37.9 µM (inactive)
N#Cc1sc2c(c1OC(=O)c1ccc(Cl)cc1)c(=O)n(-c1ccccc1)c(=S)n2-c1ccccc1,0.504 µM (active),23.3 µM (inactive),22.4 µM (inactive),27.7 µM (inactive),,15.8,19.4 µM (inactive),27.3 µM (inactive),21.5 µM (inactive),18.5 µM (inactive),31.4 µM (inactive),32.4 µM (inactive),15.4 µM (inactive),21 µM (inactive),15.6 µM (inactive),20.5 µM (inactive),17.7 µM (inactive),20.6 µM (inactive),25.8 µM (inactive),16.9 µM (inactive)
O=C1C(Cl)=C(N2CCSCC2)C(=O)c2c(O)ccc(O)c21,0.312 µM (active),0.552 µM (active),0.366 µM (active),,,,,1.51 µM (inactive),,0.1 µM (active),0.469 µM (active),0.308 µM (active),0.307 µM (active),,0.501 µM (active),0.1 µM (active),0.1 µM (active),0.631 µM (active),0.802 µM (active),0.857 µM (active)
CC(C)(Oc1ccccc1)C(=O)Sc1c(-c2ccccc2)c(=O)n(-c2ccccc2)c(=S)n1-c1ccccc1,21.9 µM (inactive),32.9 µM (inactive),50.9 µM (inactive),22 µM (inactive),,56.6,25.9 µM (inactive),> 100 µM (inactive),46.8 µM (inactive),39.8 µM (inactive),43.3 µM (inactive),28.8 µM (inactive),50.1 µM (inactive),> 100 µM (inactive),24.2 µM (inactive),31.2 µM (inactive),,20.6 µM (inactive),95.9 µM (inactive),49.7 µM (inactive)
Cc1ccc(S(=O)(=O)N/N=C2\C=C[C@]3(CC2)C(=O)N(C)c2ccccc23)cc1,,> 100 µM (inactive),,> 100 µM (inactive),,> 100,> 100 µM (inactive),> 100 µM (inactive),> 100 µM (inactive),> 100 µM (inactive),> 100 µM (inactive),> 100 µM (inactive),> 100 µM (inactive),> 100 µM (inactive),98.9 µM (inactive),33.5 µM (inactive),> 100 µM (inactive),> 100 µM (inactive),> 100 µM (inactive),> 100 µM (inactive)
O=[N+]([O-])c1ccc2[nH]nc(OCc3ccccn3)c2c1,> 100 µM (inactive),> 100 µM (inactive),> 100 µM (inactive),> 100 µM (inactive),,> 100,> 100 µM (inactive),> 100 µM (inactive),> 100 µM (inactive),> 100 µM (inactive),> 100 µM (inactive),> 100 µM (inactive),> 100 µM (inactive),> 100 µM (inactive),35.2 µM (inactive),> 100 µM (inactive),> 100 µM (inactive),> 100 µM (inactive),> 100 µM (inactive),> 100 µM (inactive)
CC[C@]12C=CCN3CCC4(c5cc([C@@]6(C(=O)OC)CC7CN(CCc8c6[nH]c6ccccc86)CC6CCCCC67)c(OC)cc5N(C)C4[C@](O)(C(=O)OC)C1OC(C)=O)[C@@H]32 (some centres undefined),< 0.01 µM (active),3.38 µM (inactive),< 0.01 µM (active),< 0.01 µM (active),,0.111,< 0.01 µM (active),< 0.01 µM (active),< 0.01 µM (active),< 0.01 µM (active),< 0.01 µM (active),< 0.01 µM (active),< 0.01 µM (active),0.743 µM (active),< 0.01 µM (active),< 0.01 µM (active),< 0.01 µM (active),< 0.01 µM (active),< 0.01 µM (active),
C[n+]1c(-c2ccc(/C=N/Nc3ccnc(N/N=C/c4ccc(-c5cn6ccccc6[n+]5C)cc4)n3)cc2)cn2ccccc21,> 100 µM (inactive),> 100 µM (inactive),24.7 µM (inactive),43.2 µM (inactive),,98.9,24.5 µM (inactive),24.2 µM (inactive),> 100 µM (inactive),94 µM (inactive),> 100 µM (inactive),> 100 µM (inactive),20.7 µM (inactive),> 100 µM (inactive),30.5 µM (inactive),47.2 µM (inactive),23.5 µM (inactive),> 10 µM (inactive),,34.7 µM (inactive)
CCOC(=O)C(CC(=O)OC)NC(=O)C(CC(=O)OC)NC(=O)C(CC(=O)OC)NC(=O)C(CC(=O)OC)NC(=O)OCc1ccccc1 (centres undefined) (Cbz-D(OMe)D(OMe)D(OMe)D(OMe)-OEt; configuration not given here),,,> 100 µM (inactive),> 100 µM (inactive),> 100 µM (inactive),> 100,> 100 µM (inactive),> 100 µM (inactive),> 100 µM (inactive),> 100 µM (inactive),> 100 µM (inactive),> 100 µM (inactive),> 100 µM (inactive),> 100 µM (inactive),> 100 µM (inactive),> 100 µM (inactive),> 100 µM (inactive),,,> 100 µM (inactive)
C/C=C/C1=C(Cl)C(=O)[C@@H](Cl)[C@@]1(O)C(=O)OC [(+)-CRYPTOSPORIPSIN],1.06 µM (active),2.09 µM (inactive),3.46 µM (inactive),1.52 µM (inactive),,1.73,1.7 µM (inactive),1.6 µM (inactive),3.28 µM (inactive),1.5 µM (inactive),9.86 µM (inactive),,2.84 µM (inactive),3.65 µM (inactive),,4.94 µM (inactive),2.28 µM (inactive),,,7.66 µM (inactive)
